Assays:
[1] = target: T1, PPARα (Homo sapiens, UniProt Q07869); experiment: PPARα binding assay (SPA); settings: concentrations up to 10 μM
T1 construct: made in house; host or cells: HEK293 (cell lysates)
T1 sequence (Q07869 1-468): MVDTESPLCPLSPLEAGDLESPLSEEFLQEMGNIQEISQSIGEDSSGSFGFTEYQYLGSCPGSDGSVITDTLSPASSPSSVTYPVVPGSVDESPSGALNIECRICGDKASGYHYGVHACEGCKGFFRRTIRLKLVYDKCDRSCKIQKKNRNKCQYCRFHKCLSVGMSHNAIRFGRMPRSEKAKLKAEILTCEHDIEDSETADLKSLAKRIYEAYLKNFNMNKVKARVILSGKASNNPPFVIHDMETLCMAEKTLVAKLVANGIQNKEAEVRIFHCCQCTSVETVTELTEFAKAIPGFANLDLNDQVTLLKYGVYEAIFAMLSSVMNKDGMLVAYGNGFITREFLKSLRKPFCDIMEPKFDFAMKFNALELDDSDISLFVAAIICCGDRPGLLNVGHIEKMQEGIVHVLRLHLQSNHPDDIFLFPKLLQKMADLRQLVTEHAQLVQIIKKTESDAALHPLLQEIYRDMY
T1 sequence (P19793 1-462 partner): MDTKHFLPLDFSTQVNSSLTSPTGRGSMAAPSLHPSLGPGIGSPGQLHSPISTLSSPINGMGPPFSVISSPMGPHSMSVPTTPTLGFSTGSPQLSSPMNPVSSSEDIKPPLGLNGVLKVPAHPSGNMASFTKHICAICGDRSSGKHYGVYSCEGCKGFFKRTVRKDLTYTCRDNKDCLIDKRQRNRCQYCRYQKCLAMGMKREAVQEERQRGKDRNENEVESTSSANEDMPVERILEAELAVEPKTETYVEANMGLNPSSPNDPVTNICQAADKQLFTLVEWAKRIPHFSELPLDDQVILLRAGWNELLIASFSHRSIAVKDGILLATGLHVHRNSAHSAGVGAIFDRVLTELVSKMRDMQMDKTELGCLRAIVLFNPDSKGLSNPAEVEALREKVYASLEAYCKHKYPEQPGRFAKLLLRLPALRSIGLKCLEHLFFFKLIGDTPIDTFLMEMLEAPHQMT
Protocol: (§1) Because GPR40 is known to be activated by ligands to PPARγ exemplified compounds are examined in PPARα, PPARδ, and PPARγ binding and functional assays to determine the selectivity of exemplified compounds for GPR40. Compounds exemplified herein are tested essentially as described below for PPAR binding and generally have binding values greater than 1000 nM with 10 μM concentrations of test compound and are thus considered negative for PPAR activity.
(§2) Binding affinities of compounds for the PPAR α, δ, and γ receptors are assessed using Scintillation Proximity Assay (SPA) technology. Biotinylated oligonucleotide Direct Repeat 2 (DR2) is used for binding the receptors to Yttrium silicate streptavidin-coated SPA beads. […] Non-specific binding is determined in the presence of 10,000 nM of the unlabeled PPAR α/δ dual agonist reference compound for the alpha and delta receptor assays and the PPARγ agonist reference compound for the gamma receptor assay. The binding reaction (100 μl per well in a 96 well [Costar 3632] plate) is incubated for 10 h and counted disintegration per minutes (dpm) on a Wallac Microbeta. Receptor binding affinity (IC50) for the compounds is determined by fitting an 11 point concentration-response curve with a 4-parameter logistic equation. Ki, is determined from the IC50 using the Cheng-Prussoff equation and Kd determined by saturation binding. […]

[2] = target: T2, PPARδ (Homo sapiens, UniProt Q03181); experiment: PPARδ binding assay (SPA); settings: concentrations up to 10 μM
T2 construct: made in house; host or cells: HEK293 (cell lysates)
T2 sequence (Q03181 1-441): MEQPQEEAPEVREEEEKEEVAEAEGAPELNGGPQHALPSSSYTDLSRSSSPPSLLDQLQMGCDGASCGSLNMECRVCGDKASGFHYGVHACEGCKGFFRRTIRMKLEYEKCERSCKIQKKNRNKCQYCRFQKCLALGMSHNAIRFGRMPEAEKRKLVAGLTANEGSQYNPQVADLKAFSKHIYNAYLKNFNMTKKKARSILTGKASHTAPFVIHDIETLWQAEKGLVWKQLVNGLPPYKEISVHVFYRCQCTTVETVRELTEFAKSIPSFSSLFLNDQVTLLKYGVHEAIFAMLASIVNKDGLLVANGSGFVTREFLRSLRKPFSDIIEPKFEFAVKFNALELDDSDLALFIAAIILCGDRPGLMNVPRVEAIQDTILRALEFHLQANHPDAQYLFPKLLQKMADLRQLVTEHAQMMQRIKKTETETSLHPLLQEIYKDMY
T2 sequence (P19793 1-462 partner): T1 sequence (P19793 1-462 partner)
Protocol: as §1, §2

[3] = test system: Min6 cells; experiment: Glucose Dependent Insulin Secretion (GDIS) assay, insulinoma cell line Min6; assay type: cell-based, mouse; settings: 1 μM plus 25 mM glucose compared to 25 mM glucose alone; 2 h
Protocol: Because activation of GPR40 is known to result in insulin secretion which is dependent on high glucose concentrations, two separate assay systems (insulinoma cell line and primary rodent islets) are developed to further characterize compounds that are known to increase intracellular calcium in the GPR40 primary assay discussed above.
GDIS assays are performed using the mouse insulinoma cell line Min6. Min6 cells are maintained in Dulbecco's Modified Eagle's Medium (DMEM) containing non-essential amino acids, 10% FBS, […] 2-mercaptoethanol and 1% penicillin and streptomycin at 37° C. plus 5% CO2. On the day of the experiment, the cells are washed twice with 200 μl of pre-warmed Krebs-ringer buffer without glucose. Addition of 200 μL of pre-warmed Krebs-ringer buffer containing 2.5 mM glucose is used to starve the cells followed by the addition of compounds in the presence of a high concentration of glucose (25 mM). The plate is incubated at 37° C. for 2 hours. At the end of the 2 h incubation, the supernatant is gently transferred into a Millipore filter plate and spun at 200 g (gravitational force) for 3 minutes. Insulin is assayed using a Mercodia Insulin estimation kit.

CC#C[C@@H](CC(=O)O)c1ccc(OCc2ccc(CN3CCC4(C=Cc5ccccc54)CC3)cc2)cc1 [Example 1, (3S)-3-(4-{[4-(1′H-Spiro[indene-1,4′-piperidin]-1′-ylmethyl)benzyl]oxy}phenyl)hex-4-ynoic acid]
binding detected [1]: no binding is detected | binding detected [2]: no binding is detected | increase in insulin secretion [3]: two-fold increase

— US8383642B2, “Spiropiperidine compounds” (Eli Lilly and Company, priority 2009, dated 2013)
